Results from the supplement of paper PMC8967900.

What was measured:
Assay in all cases: selective drug sensitivity score (sDSS, relative to normal bone marrow) (sDSS (score)); higher = more potent and effective on the cell line relative to normal bone marrow cells
Conditions in all cases: 72 h
[1] = tested on: 380
[2] = tested on: 697
[3] = tested on: ALL-PO
[4] = tested on: CCRF-CEM
[5] = tested on: COG-LL-319h
[6] = tested on: COG-LL-332h
[7] = tested on: COG-LL-355h
[8] = tested on: COG-LL-394h
[9] = tested on: HAL-01
[10] = tested on: KASUMI-9
[11] = tested on: MHH-CALL-3
[12] = tested on: MHH-CALL-4
[13] = tested on: MOLT-14
[14] = tested on: MOLT-16
[15] = tested on: NALM-6
[16] = tested on: P12-ICHIKAWA
[17] = tested on: PEER
[18] = tested on: REH
[19] = tested on: TANOUE
[20] = tested on: TMD5
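Note: ALL cell lines in 384-well plates, five doses spanning 10,000-fold, each plate scaled between vehicle and 100 µmol/L benzalkonium chloride controls, sDSS an adapted area-under-curve metric.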

Row | SMILES | selective drug sensitivity score [1] | selective drug sensitivity score [2] | selective drug sensitivity score [3] | selective drug sensitivity score [4] | selective drug sensitivity score [5] | selective drug sensitivity score [6] | selective drug sensitivity score [7] | selective drug sensitivity score [8] | selective drug sensitivity score [9] | selective drug sensitivity score [10] | selective drug sensitivity score [11] | selective drug sensitivity score [12] | selective drug sensitivity score [13] | selective drug sensitivity score [14] | selective drug sensitivity score [15] | selective drug sensitivity score [16] | selective drug sensitivity score [17] | selective drug sensitivity score [18] | selective drug sensitivity score [19] | selective drug sensitivity score [20]
1 | COc1ccc(-c2nc(N3CCOCC3)c3sc(CN(C)c4ncc(C(=O)NO)cn4)cc3n2)cn1 [Fimepinostat (CUDC-907)] (top concentration 10000 nM) | 10.3 | 9.88 | 6.48 | 6.88 | -3.82 | 1.08 | 7.28 | 3.28 | 0.98 | 10.7 | 10.9 | 9.68 | 9.18 | 8.68 | 8.68 | 5.18 | 1.98 | 2.78 | -14.8 | 5.18
2 | CCOC(=O)CCNc1cc(N2CCc3ccccc3CC2)nc(-c2ccccn2)n1 [GSK-J4] (top concentration 100000 nM) | -9.38 | -8.08 | -7.18 | -6.68 | 3.22 | -7.08 | -4.78 | -9.68 | 7.72 | -7.88 | -13.2 | -8.98 | -3.98 | -5.48 | -9.98 | -7.68 | -5.48 | -7.88 | -11.6 | -9.38
3 | Cc1cc(Nc2cc(CN3CCOCC3)c3nc(C)c(Cc4ccc(Cl)cc4F)n3n2)n[nH]1 [Gandotinib] (top concentration 10000 nM) | -8.02 | 5.28 | 4.98 | 5.68 | 8.68 | 2.18 | 2.18 | 0.88 | 4.68 | 9.88 | 1.18 | 4.78 | 3.18 | 5.68 | 4.58 | -0.62 | 8.68 | 4.98 | -7.72 | -0.82
4 | NC(=O)NO [Hydroxyurea] (top concentration 1000000 nM) | -1.04 | 12.8 | -4.54 | 3.96 | 9.26 | 12.5 | 0.66 | -1.74 | 5.26 | 4.26 | -4.44 | -1.04 | 9.16 | 5.76 | 2.56 | 6.46 | 5.56 | 4.06 | -3.94 | -3.24
5 | Cc1ccc(NC(=O)c2ccc(CN3CCN(C)CC3)cc2)cc1Nc1nccc(-c2cccnc2)n1 [Imatinib] (top concentration 10000 nM) | -0.44 | 1.06 | 1.86 | -0.44 | 0.06 | 10.2 | -0.44 | 3.06 | -0.44 | -0.44 | -0.44 | -0.44 | 0.46 | 0.46 | -0.44 | 0.16 | 12 | 0.56 | -0.44 | 8.96
6 | CC(C)NC[C@@H](C(=O)N1CCN(c2ncnc3c2[C@H](C)C[C@H]3O)CC1)c1ccc(Cl)cc1 [Ipatasertib] (top concentration 10000 nM) | 7 | 2.9 | 6.7 | 10.7 | 2.4 | 5.8 | 5.8 | -0.3 | 1.8 | -0.2 | 0.2 | 4.5 | -1.8 | 10.9 | 6.2 | 2.9 | -1.6 | 13.2 | -1.8 | -1.8
7 | CCC(C)n1ncn(-c2ccc(N3CCN(c4ccc(OCC5COC(Cn6cncn6)(c6ccc(Cl)cc6Cl)O5)cc4)CC3)cc2)c1=O (stereo not given) [Itraconazole] (top concentration 5000 nM) | -1.72 | 0.18 | 1.88 | -1.22 | 10.7 | 2.48 | -4.22 | 1.88 | 2.28 | -4.12 | -4.32 | -0.12 | -1.02 | 2.38 | -1.02 | -0.32 | 0.88 | -4.32 | -2.92 | -2.32
8 | Cc1sc2c(c1C)C(c1ccc(Cl)cc1)=N[C@@H](CC(=O)OC(C)(C)C)c1nnc(C)n1-2 [JQ1] (top concentration 10000 nM) | -0.88 | 9.72 | 4.62 | 1.32 | 12.1 | -3.08 | 3.72 | -2.88 | 6.12 | 11.8 | 16 | 8.52 | -0.58 | 8.82 | 4.32 | 5.12 | -1.88 | -3.58 | -7.48 | -3.08
9 | CCNC(=O)c1noc(-c2cc(C(C)C)c(O)cc2O)c1-c1ccc(CN2CCOCC2)cc1 [Luminespib] (top concentration 1000 nM) | 6.3 | -1.5 | 4.6 | -0.5 | 3.1 | 7.1 | 6.5 | -5.2 | -3.7 | -3 | 8.3 | 1.7 | -0.6 | 4.6 | -0.5 | -5 | -3.7 | -1.5 | -10.5 | -6.3
10 | O=C(c1cccc(Cl)c1F)N1CCN(Cc2cccc(Nc3nccs3)n2)CC1 [MK-8745] (top concentration 10000 nM) | 18.3 | 8.9 | 9.9 | 12.1 | 14.3 | 14 | 2.7 | 5 | 7 | 13.2 | 7.1 | 4.5 | 7.8 | 12.2 | 9.6 | 11.3 | 9.8 | 11.6 | -0.8 | 9.4
11 | Cc1ccc(NC(=O)c2ccc(CN3CCN(C)CC3)cc2)cc1Nc1nc(-c2cccnc2)cs1 [Masitinib] (top concentration 10000 nM) | -4.38 | 1.32 | -1.28 | 2.42 | -3.88 | 5.52 | -1.78 | 3.32 | 0.72 | 1.22 | -4.38 | -4.38 | 1.12 | 3.42 | 0.32 | 0.32 | 6.62 | -0.98 | -4.38 | 1.82
12 | CCN(CC)CCCC(C)Nc1c2ccc(Cl)cc2nc2ccc(OC)cc12 (stereo not given) [Mepacrine] (top concentration 50000 nM) | -1.7 | -3.7 | 0.2 | -5 | -2.9 | -0.4 | -3.3 | -5.7 | -3.5 | -3.6 | -1.2 | -8.4 | -0.7 | -0.8 | -5.5 | -7.8 | -5.9 | -3.3 | -10.8 | -7.6
13 | COc1ccc(-c2ccc3ncc4c(c3c2)n(-c2ccc(N3CCNCC3)c(C(F)(F)F)c2)c(=O)n4C)cn1 [NVP-BGT226] (top concentration 1000 nM) | 12.2 | 14.2 | 6.72 | 10.1 | 0.72 | 5.02 | 6.42 | -0.48 | 2.22 | 8.42 | 0.62 | 2.32 | 1.52 | 12.2 | 4.32 | 2.72 | 3.42 | 8.22 | -3.58 | -5.58
14 | COc1nc(N)nc2c1ncn2[C@@H]1O[C@H](CO)[C@@H](O)[C@@H]1O [Nelarabine] (top concentration 10000 nM) | -6.32 | 1.58 | 0.08 | 4.18 | 4.78 | 2.78 | -6.22 | -9.72 | -5.82 | 1.98 | -3.72 | -3.12 | 8.78 | -7.22 | -4.82 | 4.68 | -5.52 | -6.32 | -10.2 | -10.2
15 | Cc1cn(-c2cc(NC(=O)c3ccc(C)c(Nc4nccc(-c5cccnc5)n4)c3)cc(C(F)(F)F)c2)cn1 [Nilotinib] (top concentration 10000 nM) | 6.1 | 1.3 | 4.6 | 2.1 | 8.2 | 16.4 | 0.6 | 0.7 | 3.3 | 4.6 | 0.5 | 2 | 2.1 | 2.1 | 0 | 0.6 | 18.1 | 2.5 | 0 | 21
16 | NC(=O)c1cccc2cn(-c3ccc(C4CCCNC4)cc3)nc12 (stereo not given) [Niraparib] (top concentration 10000 nM) | 15.8 | 12.9 | 6.08 | 4.68 | 14.2 | 3.88 | 4.68 | -2.02 | 3.18 | 5.78 | 10.7 | 4.58 | 12.8 | 4.78 | 1.18 | 0.68 | -1.02 | -0.02 | -3.32 | -1.72
17 | COc1ccc(C[C@H](NC(=O)[C@H](C)NC(=O)CN2CCOCC2)C(=O)N[C@@H](Cc2ccccc2)C(=O)[C@@]2(C)CO2)cc1 [ONX-0914] (top concentration 10000 nM) | 5.5 | -5 | -3.9 | 3.1 | -0.8 | 2.2 | 8.7 | 6.2 | -9.3 | -4.1 | 7.2 | 2.9 | 0.5 | 2.5 | -1.7 | 7.3 | 7.7 | -1.6 | -4.2 | 0
